Measured values as given in patent publication US11548894B2, “Benzamide or benzamine compounds useful as anticancer agents for the treatment of human cancers” (The Board of Regents of the University of Texas System, priority 2015, dated 2023).
Structures can show the parent of a compound that is named as a salt. Where two headings read alike, the source gives them in different places.

Test system: Mut6 cells (TD-NSC)
Assay: luminescence-based Celltiter-Glo cell viability assay (ATP levels) on Mut6 tumor derived neuronal stem cells
Design: species or system mouse
Conditions: ATP activity as measure of viability, 96 hours; for EC50: read-out: EC50 (TD-NSC)
From the text: A mouse colony with 100% incidence of GBM and with conditional knockout of p53, pTEN and NF1 genes (Mut6; glioblastoma) was used to isolate primary neuronal stem cells from GBM tumors cultured in 5% Oxygen and in serum free media with defined growth factors. Primary cells from multiple tumors were pooled for high throughput screening with controls against the University of Texas Southwestern (UTSW) compound file, which encompasses ˜200,000 synthetic compounds that represent a large chemical space from several commercial vendors, including 1200 marketed drugs from the Prestwick Chemical Library®, and 600 compounds that went to pre-clinical tests from the NIH library.
A luminescence-based Celltiter-Glo® assay was performed to measure cell viability, using ATP levels as the readout. In brief, opaque-walled multiwell plates with Mut6 cells in culture medium (25 μl per well, 384-well plates) were prepared. Control wells containing medium without cells were prepared to obtain a value for background luminescence. Test compounds were added to experimental wells, and incubated according to culture protocol. The plate and its contents were incubated at 37° C., 5% […] for 96 hours. An ATP standard curve was generated immediately prior to adding the CellTiter-Glo® Reagent. A volume of CellTiter-Glo® Reagent equal to the volume of cell culture medium present in each well (25 μl of reagent to 25 μl of medium containing cells for a 384-well plate) was added. The contents were mixed for 2 minutes on an orbital shaker to induce cell lysis. The plate was allowed to incubate at room temperature for 10 minutes to stabilize the luminescent signal and luminescence recorded. (e.g. GloMax®, Lumistar, SPECTROstar, PHERAstar FS).
Compound 4C12 served as initial lead compound for analog development and for additional studies. […] See Wager, T T et al, “Moving beyond rules: the development of a central nervous system multi-parameter-optimization (CNS MPO) approach to enable alignment of drug-like properties,” ACS Chem. Neurosci. 1(6): 435-49 (2010). IC50 curves for the analog compounds plotted as ATP activity (y axis, a measure of viability) vs. concentration (nM) (x-axis) are shown in FIG. 9.

Structure (SMILES) | EC50 (Mus musculus, 96 h) [nM] | further results
C#CCN(CCNC(=O)c1ccc(Sc2ccc(F)cc2)c([N+](=O)[O-])c1)CCOC(=O)c1ccc(C(=O)c2ccccc2)cc1 [ww3-80, 2-((2-(4-((4-fluorophenyl)thio)-3-nitrobenzamido)ethyl)(prop-2-yn-1-yl)amino)ethyl 4-benzoylbenzoate] | 161 | 
CCN1CCCC1CNC(=O)c1ccc(Sc2cccc(OC)c2)c([N+](=O)[O-])c1 (centres unmarked) [JCH-146, N-((1-ethylpyrrolidin-2-yl)methyl)-4-((3-methoxyphenyl)thio)-3-nitrobenzamide] | 185 | 
CCN1CCCC1CNC(=O)c1ccc(Sc2cccc(N)c2)c([N+](=O)[O-])c1 (centres unmarked) [JCH-109, 4-((3-aminophenyl)thio)-N-((1-ethylpyrrolidin-2-yl)methyl)-3-nitrobenzamide] | 301 | 
C#CCOc1ccc(Sc2ccc(C(=O)NCCNCC)cc2[N+](=O)[O-])cc1 [DS-2-111, N-(2-(ethylamino)ethyl)-3-nitro-4-((4-(prop-2-yn-1-yloxy)phenyl)thio)benzamide] | > 1000 | 
CN(CCN)CCNC(=O)c1ccc(Sc2ccc(F)cc2)c([N+](=O)[O-])c1 [DS-1-195, N-(2-((2-aminoethyl)(methyl)amino)ethyl)-4-((4-fluorophenyl)thio)-3-nitrobenzamide] | > 1000 | 
C#CCN(CC)CCNC(=O)c1ccc(Oc2ccccc2C(=O)c2ccccc2)c([N+](=O)[O-])c1 [DS-2-101, 4-(2-benzoylphenoxy)-N-(2-(ethyl(prop-2-yn-1-yl)amino)ethyl)-3-nitrobenzamide] | > 1000 | 
CCN1CCCC1CNC(=O)c1ccc(Sc2ccc(F)c(F)c2)c([N+](=O)[O-])c1 (centres unmarked) [DS-1-067, 4-((3,4-difluorophenyl)thio)-N-((1-ethylpyrrolidin-2-yl)methyl)-3-nitrobenzamide] | 118 | 
C#CCN(CC)CCNC(=O)c1ccc(Sc2ccc(N=[N+]=[N-])cc2)c([N+](=O)[O-])c1 [DS-2-091, 4-((4-azidophenyl)thio)-N-(2-(ethyl(prop-2-yn-1-yl)amino)ethyl)-3-nitrobenzamide] | > 1000 | 
CCN1CCCC1CNC(=O)c1ccc(Sc2cccc3cccnc23)c([N+](=O)[O-])c1 (centres unmarked) [DS-1-269, N-((1-ethylpyrrolidin-2-yl)methyl)-3-nitro-4-(quinolin-8-ylthio)benzamide] | 535 | 
CCN1CCCC1CNS(=O)(=O)c1ccc(Sc2ccc(F)cc2)c([N+](=O)[O-])c1 (centres unmarked) [DS-2-055, N-((1-ethylpyrrolidin-2-yl)methyl)-4-((4-fluorophenyl)thio)-3-nitrobenzenesulfonamide] | 155 | 
CCN1CCCC1CNC(=O)c1ccc(-c2cccc(F)c2)c([N+](=O)[O-])c1 (centres unmarked) [DS-1-183, N-((1-ethylpyrrolidin-2-yl)methyl)-3′-fluoro-2-nitro-[1,1′-biphenyl]-4-carboxamide] | > 1000 | 
CCN1CCCC1CNC(=O)c1ccc(Sc2ccccc2O)c([N+](=O)[O-])c1 (centres unmarked) [JCH-143, N-((1-ethylpyrrolidin-2-yl)methyl)-4-((2-hydroxyphenyl)thio)-3-nitrobenzamide] | 160 | 
O=C(NCC1CCCO1)c1ccc(Sc2ccc(F)cc2)c([N+](=O)[O-])c1 (centres unmarked) [DS-1-275, 4-((4-fluorophenyl)thio)-3-nitro-N-((tetrahydrofuran-2-yl)methyl)benzamide] | > 1000 | 
CC(C)(C)OC(=O)N1CCN(CCNC(=O)c2ccc(Sc3ccc(F)cc3)c([N+](=O)[O-])c2)CC1 [DS-2-127, Tert-butyl 4-(2-(4-((4-fluorophenyl)thio)-3-nitrobenzamido)ethyl)piperazine-1-carboxylate] |  | EC50 (TD-NSC) (nM): Not Active
CCN1CCCC1CNC(=O)c1ccc(Sc2ccc3ccccc3n2)c([N+](=O)[O-])c1 (centres unmarked) [JCH-127, N-((1-ethylpyrrolidin-2-yl)methyl)-3-nitro-4-(quinolin-2-ylthio)benzamide] | 125 | 
C#CCN(CC)CCNC(=O)c1ccc(Sc2ccc(F)cc2)c([N+](=O)[O-])c1 [DS-2-035, N-(2-(ethyl(prop-2-yn-1-yl)amino)ethyl)-4-((4-fluorophenyl)thio)-3-nitrobenzamide] | 49 | 
CCN1CCCC1CNC(=O)c1ccc(Sc2cccc(Cl)c2)c([N+](=O)[O-])c1 (centres unmarked) [DS-1-295, 4-((3-chlorophenyl)thio)-N-((1-ethylpyrrolidin-2-yl)methyl)-3-nitrobenzamide] | 70 | 
CCN1CCCC1CNC(=O)c1ccc(Sc2ccccc2Cl)c([N+](=O)[O-])c1 (centres unmarked) [JCH-111, 4-((2-chlorophenyl)thio)-N-((1-ethylpyrrolidin-2-yl)methyl)-3-nitrobenzamide] | 119 | 
CCN1CCCC1CNC(=O)c1ccc(Sc2ccccc2F)c([N+](=O)[O-])c1 (centres unmarked) [DS-1-075, N-((1-ethylpyrrolidin-2-yl)methyl)-4-((2-fluorophenyl)thio)-3-nitrobenzamide] | 102 | 
O=C(NCCN1CCOCC1)c1ccc(Sc2ccc(F)cc2)c([N+](=O)[O-])c1 [DS-1-241, 4-((4-fluorophenyl)thio)-N-(2-morpholinoethyl)-3-nitrobenzamide Hydrochloride] |  | EC50 (Hydrochloride): 44 nM
CCN1CCCC1CNC(=O)c1ccc(Sc2cccc(O)c2)c([N+](=O)[O-])c1 (centres unmarked) [JCH-140, N-((1-ethylpyrrolidin-2-yl)methyl)-4-((3-hydroxyphenyl)thio)-3-nitrobenzamide] | 139 | 
CCN1CCCC1CNC(=O)c1ccc(Sc2ccc(F)cc2)c([N+](=O)[O-])c1 (centres unmarked) [DS-1-191, N-((1-ethylpyrrolidin-2-yl)methyl)-4-((4-fluorophenyl)thio)-3-nitrobenzamide Hydrochloride] |  | EC50 (Hydrochloride): 95 nM
CCN1CCCC1CNC(=O)c1ccc(Sc2ccc(Cl)c(C(F)(F)F)c2)c([N+](=O)[O-])c1 (centres unmarked) [DS-2-143, 4-((4-chloro-3-(trifluoromethyl)phenyl)thio)-N-((1-ethylpyrrolidin-2-yl)methyl)-3-nitrobenzamide] | 129 | 
CCN(CCO)CCNC(=O)c1ccc(Sc2ccc(F)cc2)c([N+](=O)[O-])c1 [ww3-62, N-(2-(ethyl(2-hydroxyethyl)amino)ethyl)-4-((4-fluorophenyl)thio)-3-nitrobenzamide] | 57 | 
O=C(NCCN1CCNCC1)c1ccc(Sc2ccc(F)cc2)c([N+](=O)[O-])c1 [DS-2-129, 4-((4-fluorophenyl)thio)-3-nitro-N-(2-(piperazin-1-yl)ethyl)benzamide] | 141 | 

Second part, led by results:

EC50 (Mus musculus, 96 h) [nM] | Structure (SMILES) | further results
516 | CCN1CCCC1CNC(=O)c1ccc(Sc2ccc(C(C)C)cc2)c([N+](=O)[O-])c1 (centres unmarked) [DS-1-123, N-((1-ethylpyrrolidin-2-yl)methyl)-4-((4-isopropylphenyl)thio)-3-nitrobenzamide] | 
62 | CCN1CCCC1CNC(=O)c1ccc(Sc2ccc(Br)cc2)c([N+](=O)[O-])c1 (centres unmarked) [DS-1-185, 4-((4-bromophenyl)thio)-N-((1-ethylpyrrolidin-2-yl)methyl)-3-nitrobenzamide] | 
63 | CCN1CCCC1CNC(=O)c1ccc(Sc2ccc(F)cc2)c(N=[N+]=[N-])c1 (centres unmarked) [ww3-57, 3-azido-N-((1-ethylpyrrolidin-2-yl)methyl)-4-((4-fluorophenyl)thio)benzamide] | 
233 | CCN1CCCC1CNC(=O)c1ccc(C(=O)c2ccc(F)cc2)c([N+](=O)[O-])c1 (centres unmarked) [DS-2-057, N-((1-ethylpyrrolidin-2-yl)methyl)-4-(4-fluorobenzoyl)-3-nitrobenzamide] | 
36 | CCN1CCCC1CNC(=O)c1ccc(Oc2ccc(F)cc2)c([N+](=O)[O-])c1 (centres unmarked) [DS-1-103, N-((1-ethylpyrrolidin-2-yl)methyl)-4-(4-fluorophenoxy)-3-nitrobenzamide] | 
60 | CCN1CCCC1CNC(=O)c1ccc([N+](=O)[O-])c(Sc2ccc(F)cc2)c1 (centres unmarked) [DS-2-115, N-((1-ethylpyrrolidin-2-yl)methyl)-3-((4-fluorophenyl)thio)-4-nitrobenzamide] | 
> 1000 | CCN1CCCC1CNC(=O)c1ccc(Sc2ccc(F)cc2)c(C(N)=O)c1 (centres unmarked) [DS-1-231-M, N^1-((1-ethylpyrrolidin-2-yl)methyl)-4-((4-fluorophenyl)thio)isophthalamide] | 
485 | CCN1CCCC1CNC(=O)c1ccc(Sc2ccc(O)cc2)c([N+](=O)[O-])c1 (centres unmarked) [DS-1-217, N-((1-ethylpyrrolidin-2-yl)methyl)-4-((4-hydroxyphenyl)thio)-3-nitrobenzamide] | 
> 1000 | CCN1CCCC1CNC(=O)c1ccc(-c2ccc(F)cc2)c([N+](=O)[O-])c1 (centres unmarked) [DS-1-181, N-((1-ethylpyrrolidin-2-yl)methyl)-4′-fluoro-2-nitro-[1,1′-biphenyl]-4-carboxamide] | 
239 | C#CCN(CC)CCNC(=O)c1ccc(Sc2ccc(F)cc2)c(N=[N+]=[N-])c1 [ww3-77, 3-azido-N-(2-(ethyl(prop-2-yn-1-yl)amino)ethyl)-4-((4-fluorophenyl)thio)benzamide] | 
